Test results as given in US9320759B2, “Methods and compositions for treating, reducing or preventing deterioration of the visual system of animals” (Nestec S.A, priority 2011, dated 2016).

Legend:
[1] = system: TUNEL-positive cells in the ischemic boundary cortex; assay: TUNEL staining and cell death quantification after transient middle cerebral artery occlusion; assay type: in vivo, rat; details: OVX female rats, 4 weeks diet (E2 1 week), 1 hour MCA occlusion, 24 hours reperfusion
Description: Young adult (2 to 3 months old) female Charles River rats were ovariectomized (OVX) and fed one of 5 compositions for 4 weeks or treated with estradiol (E2) as a positive control for one week. The animal groups and respective compositions were: At the end of the 4 weeks of feeding (or 1 week of E2 treatment), the animals were subjected to a transient (1 hour) middle cerebral artery occlusion followed by reperfusion for 24 hours to mimic one of the main causes of neuron loss. Then, the animals were euthanized for determination of brain lesion volume and subsequent terminal deoxynucleotidyl transferase dUTP nick end labeling (TUNEL) staining to evaluate apoptosis in and around brain lesions. TUNEL staining was conducted on the same tissue used for assessment of lesion volume in Example 2. Brain slices were post-fixed in 4% formalin for later sectioning for subsequent staining for TUNEL positive neurons. DNA fragmentation was detected by a TUNEL method using a Dead END fluorescent kit (Promega, Madison, Wis.) according to the manufacturer's instruction. […] Within these boundaries, optical dissectors were systematically randomly sampled and the number of positive cells, together with DAPI labeled nuclear counter-stain in each optical section is counted. […] The data were expressed as the percentage of DAPI nuclear counter-stained cells.

[2] = system: brain lesion (infarcted area) after middle cerebral artery occlusion; assay: TTC staining, brain lesion volume after transient middle cerebral artery occlusion; assay type: in vivo, rat; details: OVX female rats, 4 weeks diet (E2 1 week), 1 hour MCA occlusion, 24 hours reperfusion
Description: Young adult (2 to 3 months old) female Charles River rats were ovariectomized (OVX) and fed one of 5 compositions for 4 weeks or treated with estradiol (E2) as a positive control for one week. The animal groups and respective compositions were: At the end of the 4 weeks of feeding (or 1 week of E2 treatment), the animals were subjected to a transient (1 hour) middle cerebral artery occlusion followed by reperfusion for 24 hours to mimic one of the main causes of neuron loss. […] Photographs were taken with a digital camera. The digital images of each brain section were used to calculate lesion volume for the infracted area of the brain.

C[C@]12CC[C@@H]3c4ccc(O)cc4CC[C@H]3[C@@H]1CC[C@@H]2O [17β-Estradiol]
TUNEL Staining Value (TUNEL-positive cells normalized to the total number of cells by DAPI stain) [1]: 37.69 percentage of DAPI nuclear counter-stained cells | Lesion Volume Value [2]: 147.41
